Experiment: Storage stability of budesonide formulations, % recovery (Examples 6 and 8)
Type: physicochemical
Settings: pH between about 3 and about 8, more preferably about 3.5 to about 6
Protocol: After dilution all samples were sterilized by filtering them through a 0.2 μm Millipore sterile filters and placed in sterile low density polyethylene plastic vials. These formulations were kept in humidity and temperature controlled chambers at 5° C. 25° C./60% RH and 40° C./75% RH (where RH is the relative humidity). The % recovery after 13.5 weeks from time zero is presented for each formulation and storage condition, in the following table: […]
The formulations described in Examples 6 and 7 were also prepared using lower buffer concentrations of 10 mM, 5 mM, and 1 mM with similar stability results.

- stability of aqueous compositions at lower pH ranges: superior stability
SMILES: CCCC1O[C@@H]2C[C@H]3[C@@H]4CCC5=CC(=O)C=C[C@]5(C)[C@H]4[C@@H](O)C[C@]3(C)[C@]2(C(=O)CO)O1 (stereo partly shown) [Budesonide, budesonide]
